Assay results published in patent US9133168B2, “Pyrimidine derivatives, preparation thereof, and pharmaceutical use thereof as akt(pkb) phosphorylation inhibitors” (SANOFI, priority 2010, dated 2015).

System: AKT protein phosphorylated on serine 473 (P-AKT-S473) in PC3 human prostate carcinoma cells
Experiment: pAKT expression in PC3 human prostate carcinoma cells, MSD Multi-spot Biomarker detection (Test A)
Type: cell-based
Conditions: Homo sapiens, PC-3, PC3 cells, 1 to 2 h incubation, P-AKT-S473, absolute IC50, mean of two independent experiments
Experimental: The inhibitory activity of the molecules on AKT phosphorylation is measured using the MSD Multi-spot Biomarker detection technique from Meso Scale Discovery also described below. […] The primary antibody specific for […]) is coated on to an electrode in each well of the 96-well plates of the MSD kit: after the addition of a protein lysate to each well, the signal is visualized by adding a secondary detection antibody labeled with an electrochemiluminescent compound. The procedure followed is the one described in the kit. […] On day 2, the cells are incubated in the presence or absence of the test products for 1 to 2 h at 37° C. in the presence of 5% CO2. The molecules, diluted in dimethyl sulfoxide (DMSO Sigma #D2650), are added from a 20-times concentrated stock solution, the final percentage of DMSO being 0.1%. The molecules are tested either at a single concentration of less than or equal to 10 μM, or at increasing concentrations in a range that can extend from less than 1 nM to 10 μM. After this incubation, the cells are lysed for the preparation of the proteins. […] At this stage, the plates containing the lysates can be frozen at -20° C. or at -80° C. The wells of the 96 well plates of the MSD kit are saturated for 1 h at ambient temperature with the blocking solution of the MSD kit. Four washes are carried out with 150 μl of Tris Wash Buffer of the MSD kit. The lysates previously prepared are transferred into the 96-well multi-spot plates of the MSD kit and incubated for 1 h at ambient temperature, with shaking. Four washes are carried out with 150 μl of Tris Wash Buffer of the MSD kit. 25 μl of the MSD sulfo-tag detection antibody solution are added to the wells and incubated for 1 h at ambient temperature, with shaking. Four washes are carried out with 150 μl of Tris Wash Buffer of the MSD kit. 150 μl of Read Buffer of the MSD kit are added to the wells and the plates are read immediately on the S12400 instrument from Meso Scale Discovery. The instrument measures a signal for each well. Wells without cells and containing the lysis buffer serve to determine the background noise that will be subtracted from all the measurements (min). The wells containing cells in the absence of product and in the presence of 0.1% DMSO are considered to be the 100% signal (max). The percentage inhibition is calculated for each concentration of product tested, according to the following formula: (1-((test-min)/(max-min)))×100. […] Two independent experiments make it possible to calculate the mean of the IC50 values.

First: CC1Cc2cc(F)c(F)cc2N1C(=O)Cc1nc(N2CCOCC2)c(F)c(=O)n1C (stereo not drawn) [Example 26a, 5-fluoro-2-[2-((+)-5,6-difluoro-2-methyl-2,3-dihydroindol-1-yl)-2-oxoethyl]-3-methyl-6-morpholin-4-yl-3H-pyrimidin-4-one]
Second: C[C@H]1Cc2ccccc2N1C(=O)Cc1nc(N2CCOCC2)c(F)c(=O)n1C [Example 8a, 5-fluoro-3-methyl-2-{2-[(2S)-2-methyl-2,3-dihydro-1H-indol-1-yl]-2-oxoethyl}-6-(morpholin-4-yl)pyrimidin-4(3H)-one]
The IC50 of the first is 2-fold higher: 211 nM for the first, 107 nM for the second.

Compared with `O=C(Cc1nc(-c2ccncc2)cc(=O)[nH]1)N1CCc2c(F)cccc21` [Example 12b, 2-[2-(4-fluoro-2,3-dihydroindol-1-yl)-2-oxoethyl]-6-pyridin-4-yl-3H-pyrimidin-4-one], `COc1ccccc1-c1cccc2c1CCN2C(=O)Cc1nc(N2CCOCC2)cc(=O)[nH]1` [Example 6d, 2-{2-[4-(2-methoxyphenyl)-2,3-dihydro-1H-indol-1-yl]-2-oxoethyl}-6-(morpholin-4-yl)pyrimidin-4(3H)-one] is 12-fold lower in IC50: 370 nM for the first, 32 nM for the second. The second is the more potent here.

`O=C(Cc1nc(N2CCOCC2)c(F)c(=O)[nH]1)N1c2ccccc2C[C@H]1CO` [Example 39a, 5-Fluoro-2-[2-((−)-2-hydroxymethyl-2,3-dihydroindol-1-yl)-2-oxoethyl]-6-morpholin-4-yl-3H-pyrimidin-4-one] and `C[C@@H]1Cc2ccccc2N1C(=O)Cc1nc(N2CCOCC2)c(F)c(=O)[nH]1` [Example 4a, 5-fluoro-2-{2-[(2R)-2-methyl-2,3-dihydro-1H-indol-1-yl]-2-oxoethyl}-6-(morpholin-4-yl)pyrimidin-4(3H)-one] are within 1.5-fold of each other in IC50: 568 nM for the first, 503 nM for the second.

Going from `CC(C)[C@@H]1Cc2ccccc2N1C(=O)Cc1nc(N2CCOCC2)cc(=O)[nH]1` [Example 40c, (+)-2-[2-(2-isopropyl-2,3-dihydroindol-1-yl)-2-oxoethyl]-6-morpholin-4-yl-3H-pyrimidin-4-one] to `C[C@H]1Cc2ccccc2N1C(=S)Cc1nc(N2CCOCC2)cc(=S)[nH]1` [Example 2e, 2-[2-((S)-2-methyl-2,3-dihydroindol-1-yl)-2-thioxoethyl]-6-morpholin-4-yl-3H-pyrimidine-4-thione], the IC50 falls from 243 nM to 4 nM (61-fold). The second is the more potent here.

`Cn1c(CC(=O)N2CCc3c2cccc3C(F)(F)F)nc(N2CCOCC2)cc1=O` [Example 4d, 3-methyl-6-(morpholin-4-yl)-2-{2-oxo-2-[4-(trifluoromethyl)-2,3-dihydro-1H-indol-1-yl]ethyl}pyrimidin-4(3H)-one] and `Cn1c(CC(=O)N2CCc3c(OC(F)F)cccc32)nc(N2CCOCC2)cc1=O` [Example 8d, 2-{2-[4-(difluoromethoxy)-2,3-dihydro-1H-indol-1-yl]-2-oxoethyl}-3-methyl-6-(morpholin-4-yl)pyrimidin-4(3H)-one] are within 1.5-fold of each other in IC50: 63 nM for the first, 60 nM for the second.

`CC1Cc2c(ccc(F)c2F)N1C(=O)Cc1nc(N2CCOCC2)c(F)c(=S)[nH]1` (stereo not drawn) [Example 8e, 1-((+)-4,5-Difluoro-2-methyl-2,3-dihydroindol-1-yl)-2-(5-fluoro-4-morpholin-4-yl-6-thioxo-1,6-dihydropyrimidin-2-yl)ethanone] was tested, and the IC50 was 11 nM.

Same assay, conditions: PC3 cells, 1 to 2 h incubation, P-AKT-S473, absolute IC50, mean of two independent experiments

`C[C@@H]1Cc2ccccc2N1C(=O)Cc1nc(N2CCOCC2)cc(=O)[nH]1` [Example 20b, (−)-2-[2-(2-methyl-2,3-dihydroindol-1-yl)-2-oxoethyl]-6-(2,2,6,6-morpholin-D4)-4-yl-3H-pyrimidin-4-one] and `CC1Cc2c(Cl)cccc2N1C(=O)Cc1nc(N2CCOCC2)cc(=O)[nH]1` (single isomer, unassigned; (+)) [Example 2c, (+)-2-{2-[4-chloro-2-methyl-2,3-dihydro-1H-indol-1-yl]-2-oxoethyl}-6-(morpholin-4-yl)pyrimidin-4(3H)-one] are the same in IC50: 5 nM for the first, 5 nM for the second.

Going from `CC1Cc2c(OC(F)F)cccc2N1C(=O)Cc1nc(N2CCOCC2)cc(=O)n1C` (single isomer, unassigned; (-)) [Example 32d, (−)-2-{2-[4-(difluoromethoxy)-2-methyl-2,3-dihydro-1H-indol-1-yl]-2-oxoethyl}-3-methyl-6-(morpholin-4-yl)pyrimidin-4(3H)-one] to `CC1Cc2c(OC(F)F)cccc2N1C(=O)Cc1nc(N2CCOCC2)cc(=O)[nH]1` (single isomer, unassigned; (-)) [Example 30d, (−)-2-{2-[4-(difluoromethoxy)-2-methyl-2,3-dihydro-1H-indol-1-yl]-2-oxoethyl}-6-(morpholin-4-yl)pyrimidin-4(3H)-one], the IC50 falls from 60 nM to 8 nM (7.5-fold).

Compared with `CC1Cc2cc(F)c(F)cc2N1C(=O)Cc1nc(N2CCOCC2)cc(=O)[nH]1` (stereo not shown) [Example 22c], `CC1Cc2cc(F)c(F)cc2N1C(=O)Cc1nc(N2CCOCC2)cc(=O)n1C` (stereo not drawn) [Example 23c, 2-{2-[(−)-5,6-difluoro-2-methyl-2,3-dihydro-1H-indol-1-yl]-2-oxoethyl}-3-methyl-6-(morpholin-4-yl)pyrimidin-4(3H)-one] is 16-fold higher in IC50: 2 nM for the first, 32 nM for the second. The first is the more potent here.

Going from `CC1CN(c2cc(=O)[nH]c(CC(=O)Nc3ccc(F)cc3)n2)CCO1` (stereo not shown) [Example 1b, N-(4-fluorophenyl)-2-[4-(2-methylmorpholin-4-yl)-6-oxo-1,6-dihydropyrimidin-2-yl]acetamide] to `O=C(Cc1nc(N2CCOCC2)cc(=O)[nH]1)N1c2ccccc2CC1c1ccc(F)cc1` (single isomer, unassigned; (-)) [Example 28d, (−)-2-{2-[2-(4-fluorophenyl)-2,3-dihydro-1H-indol-1-yl]-2-oxoethyl}-6-(morpholin-4-yl)pyrimidin-4(3H)-one], the IC50 falls from 26 nM to 2 nM (13-fold). The second is the more potent here.

First: CC1Cc2ccc(F)cc2N1C(=O)Cc1nc(N2CCOCC2)c(F)c(=O)[nH]1 (stereo not drawn) [Example 33a, 5-Fluoro-2-[2-((+)-6-fluoro-2-methyl-2,3-dihydroindol-1-yl)-2-oxoethyl]-6-morpholin-4-yl-3H-pyrimidin-4-one]
Second: CC1Cc2c(F)cccc2N1C(=O)Cc1nc(N2CCOCC2)c(F)c(=O)[nH]1 (stereo not drawn) [Example 10a, 5-fluoro-2-[2-((+)-2-methyl-4-fluoro-2,3-dihydroindol-1-yl)-2-oxoethyl]-6-morpholin-4-yl-3H-pyrimidin-4-one]
The IC50 of the first is 1.5-fold lower: 77 nM for the first, 116 nM for the second. The first is the more potent here.

Compared with `CC1Cc2c(OC(F)F)cccc2N1C(=O)Cc1nc(N2CCOCC2)cc(=O)n1C` (single isomer, unassigned; (+)) [Example 31d, (+)-2-{2-[4-(difluoromethoxy)-2-methyl-2,3-dihydro-1H-indol-1-yl]-2-oxoethyl}-3-methyl-6-(morpholin-4-yl)pyrimidin-4(3H)-one], `CC1Cc2c(Br)cccc2N1C(=O)Cc1nc(N2CCOCC2)cc(=O)[nH]1` (single isomer, unassigned; (-)) [Example 26c, (−)-2-{2-[4-bromo-2-methyl-2,3-dihydro-1H-indol-1-yl]-2-oxoethyl}-6-(morpholin-4-yl)pyrimidin-4(3H)-one] is 56-fold lower in IC50: 167 nM for the first, 3 nM for the second.

Compared with `CC1Cc2c(ccc(F)c2F)N1C(=O)Cc1nc(N2CCOCC2)cc(=O)[nH]1` (single isomer, unassigned; (-)) [Example 18c, (−)-2-{2-[4,5-difluoro-2-methyl-2,3-dihydro-1H-indol-1-yl]-2-oxoethyl}-6-(morpholin-4-yl)pyrimidin-4(3H)-one], `CC1Cc2c(ccc(F)c2F)N1C(=O)Cc1nc(N2CCOCC2)c(F)c(=O)n1C` (stereo not drawn) [Example 24a, 5-fluoro-2-[2-((−)-4,5-difluoro-2-methyl-2,3-dihydroindol-1-yl)-2-oxoethyl]-3-methyl-6-morpholin-4-yl-3H-pyrimidin-4-one] is 310-fold higher in IC50: 1 nM for the first, 310 nM for the second. The first is the more potent here.
